Biological target: cystic fibrosis transmembrane conductance regulator (CFTR) (Homo sapiens, UniProt P13569)
Assay: CPT-cAMP-stimulated apical chloride current in basolaterally permeabilized T84 monolayers (endogenous CFTR); genistein-stimulated current also inhibited (IC50 […])
Type: cell-based

Sequence of cystic fibrosis transmembrane conductance regulator (CFTR) (P13569 whole entry): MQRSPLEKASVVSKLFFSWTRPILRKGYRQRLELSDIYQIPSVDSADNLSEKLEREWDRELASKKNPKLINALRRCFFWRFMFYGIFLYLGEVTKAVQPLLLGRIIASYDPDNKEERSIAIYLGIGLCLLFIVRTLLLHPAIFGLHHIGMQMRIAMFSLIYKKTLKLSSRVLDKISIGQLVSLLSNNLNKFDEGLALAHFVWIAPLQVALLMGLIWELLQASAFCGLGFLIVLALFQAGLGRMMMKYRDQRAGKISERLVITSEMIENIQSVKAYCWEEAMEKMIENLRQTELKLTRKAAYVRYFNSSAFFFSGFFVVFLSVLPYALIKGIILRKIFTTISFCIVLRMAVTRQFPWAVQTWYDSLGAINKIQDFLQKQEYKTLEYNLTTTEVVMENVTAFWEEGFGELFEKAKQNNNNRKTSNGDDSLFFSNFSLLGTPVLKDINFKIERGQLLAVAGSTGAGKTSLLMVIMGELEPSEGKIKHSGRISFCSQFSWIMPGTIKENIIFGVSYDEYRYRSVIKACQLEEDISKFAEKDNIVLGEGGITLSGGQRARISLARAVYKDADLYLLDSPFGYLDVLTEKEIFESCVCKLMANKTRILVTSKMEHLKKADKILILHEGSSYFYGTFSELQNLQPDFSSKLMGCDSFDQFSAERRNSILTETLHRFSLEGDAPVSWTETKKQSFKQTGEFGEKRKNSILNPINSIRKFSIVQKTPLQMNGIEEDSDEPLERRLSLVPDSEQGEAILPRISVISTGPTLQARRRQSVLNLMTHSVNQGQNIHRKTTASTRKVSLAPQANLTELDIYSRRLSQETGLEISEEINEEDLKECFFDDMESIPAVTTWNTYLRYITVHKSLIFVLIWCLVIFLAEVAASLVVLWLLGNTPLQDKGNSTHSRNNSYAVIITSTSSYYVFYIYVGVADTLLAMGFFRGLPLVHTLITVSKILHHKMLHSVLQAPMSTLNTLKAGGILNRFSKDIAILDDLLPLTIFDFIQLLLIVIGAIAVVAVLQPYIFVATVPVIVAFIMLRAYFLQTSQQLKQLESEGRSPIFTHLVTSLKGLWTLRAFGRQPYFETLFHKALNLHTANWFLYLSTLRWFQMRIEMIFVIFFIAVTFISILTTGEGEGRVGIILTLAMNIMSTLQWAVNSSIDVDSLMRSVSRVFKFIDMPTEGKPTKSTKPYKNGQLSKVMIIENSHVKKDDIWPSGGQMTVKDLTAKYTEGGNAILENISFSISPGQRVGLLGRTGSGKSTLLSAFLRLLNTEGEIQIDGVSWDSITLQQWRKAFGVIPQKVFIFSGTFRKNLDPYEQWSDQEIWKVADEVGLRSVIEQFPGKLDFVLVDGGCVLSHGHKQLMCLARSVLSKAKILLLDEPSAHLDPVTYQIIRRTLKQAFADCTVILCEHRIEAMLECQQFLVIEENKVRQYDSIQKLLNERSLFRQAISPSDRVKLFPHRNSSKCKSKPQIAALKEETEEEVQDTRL

IC50: 1030 ± 130 nM
Compound: C/C=C(\C)c1c(Cl)c(O)c(C)c2c1Oc1c(Cl)c(O)c(Cl)c(C)c1C(=O)O2 [N9, nornidulin]
